Measured values as given in ChEMBL document CHEMBL5696442, “Discovery of type II inhibitors of TGFβ-activated kinase 1 (TAK1) and mitogen-activated protein kinase kinase kinase kinase 2 (MAP4K2)” (J Med Chem, 2015).

Legend:
Type in all cases: cell-based
[1] = molecular target: T1, Mitogen-activated protein kinase kinase kinase 5 (Homo sapiens) (UniProt Q99683); experiment: Inhibition of MAP3K5 Lys2 labeling site in human A-375 cells at 0.05 uM by KiNativ Profiling analysis relative to control
T1 sequence (whole entry): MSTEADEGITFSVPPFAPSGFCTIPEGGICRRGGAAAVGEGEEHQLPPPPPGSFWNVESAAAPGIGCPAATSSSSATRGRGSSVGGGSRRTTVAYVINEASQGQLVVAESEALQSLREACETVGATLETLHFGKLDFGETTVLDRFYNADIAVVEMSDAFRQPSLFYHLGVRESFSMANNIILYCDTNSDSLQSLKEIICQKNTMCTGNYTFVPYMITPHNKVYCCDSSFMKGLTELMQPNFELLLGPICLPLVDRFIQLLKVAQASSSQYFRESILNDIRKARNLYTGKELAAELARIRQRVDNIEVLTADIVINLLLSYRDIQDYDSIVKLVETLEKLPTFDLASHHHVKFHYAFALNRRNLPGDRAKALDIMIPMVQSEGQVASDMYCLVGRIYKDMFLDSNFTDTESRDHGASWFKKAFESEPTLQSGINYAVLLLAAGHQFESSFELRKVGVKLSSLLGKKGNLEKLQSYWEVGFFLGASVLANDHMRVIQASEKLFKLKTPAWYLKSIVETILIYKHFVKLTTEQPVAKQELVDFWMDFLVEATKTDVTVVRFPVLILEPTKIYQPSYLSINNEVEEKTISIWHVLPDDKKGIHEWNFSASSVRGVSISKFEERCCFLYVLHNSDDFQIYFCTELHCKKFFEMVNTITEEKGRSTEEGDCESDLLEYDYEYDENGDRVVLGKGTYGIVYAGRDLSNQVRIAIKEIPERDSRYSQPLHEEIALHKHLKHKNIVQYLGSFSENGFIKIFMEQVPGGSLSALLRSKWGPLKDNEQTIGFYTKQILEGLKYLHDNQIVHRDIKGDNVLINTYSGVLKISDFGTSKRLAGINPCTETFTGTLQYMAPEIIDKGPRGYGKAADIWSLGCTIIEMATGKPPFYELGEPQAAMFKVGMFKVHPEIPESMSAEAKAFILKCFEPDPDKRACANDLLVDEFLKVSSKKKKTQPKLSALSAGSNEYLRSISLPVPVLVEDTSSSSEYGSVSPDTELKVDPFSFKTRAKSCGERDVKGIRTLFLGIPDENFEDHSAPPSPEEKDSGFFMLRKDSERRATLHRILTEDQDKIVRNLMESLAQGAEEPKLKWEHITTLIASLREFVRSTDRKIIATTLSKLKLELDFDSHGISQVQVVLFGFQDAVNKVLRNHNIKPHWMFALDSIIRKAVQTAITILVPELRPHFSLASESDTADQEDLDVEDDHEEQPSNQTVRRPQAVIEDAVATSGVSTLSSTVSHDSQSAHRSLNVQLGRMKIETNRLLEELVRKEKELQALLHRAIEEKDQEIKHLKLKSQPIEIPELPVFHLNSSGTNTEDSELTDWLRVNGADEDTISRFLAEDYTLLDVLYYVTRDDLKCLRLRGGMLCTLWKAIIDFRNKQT

[2] = molecular target: T2, Dual specificity mitogen-activated protein kinase kinase 6 (Homo sapiens) (UniProt P52564); experiment: Inhibition of MAP2K6 ACT labeling site in human Huh-7 cells at 10 uM by KiNativ Profiling analysis relative to control
T2 sequence (whole entry): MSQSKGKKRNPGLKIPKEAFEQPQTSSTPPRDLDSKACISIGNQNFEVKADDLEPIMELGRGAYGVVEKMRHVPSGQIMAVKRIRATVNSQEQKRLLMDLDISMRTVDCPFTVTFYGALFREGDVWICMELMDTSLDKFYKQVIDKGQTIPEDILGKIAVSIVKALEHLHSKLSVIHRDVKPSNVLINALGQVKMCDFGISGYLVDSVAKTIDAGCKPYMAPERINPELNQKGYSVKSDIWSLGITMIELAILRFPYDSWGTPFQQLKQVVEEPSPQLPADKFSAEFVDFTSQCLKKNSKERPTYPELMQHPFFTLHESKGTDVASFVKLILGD

[3] = molecular target: Rho-associated protein kinase (Homo sapiens) (UniProt O75116+Q13464); experiment: Inhibition of ROCK1/2 K2 labeling site in human Huh-7 cells at 10 uM by KiNativ Profiling analysis relative to control
Chain of Rho-associated protein kinase (Homo sapiens) (O75116 whole entry, looked up): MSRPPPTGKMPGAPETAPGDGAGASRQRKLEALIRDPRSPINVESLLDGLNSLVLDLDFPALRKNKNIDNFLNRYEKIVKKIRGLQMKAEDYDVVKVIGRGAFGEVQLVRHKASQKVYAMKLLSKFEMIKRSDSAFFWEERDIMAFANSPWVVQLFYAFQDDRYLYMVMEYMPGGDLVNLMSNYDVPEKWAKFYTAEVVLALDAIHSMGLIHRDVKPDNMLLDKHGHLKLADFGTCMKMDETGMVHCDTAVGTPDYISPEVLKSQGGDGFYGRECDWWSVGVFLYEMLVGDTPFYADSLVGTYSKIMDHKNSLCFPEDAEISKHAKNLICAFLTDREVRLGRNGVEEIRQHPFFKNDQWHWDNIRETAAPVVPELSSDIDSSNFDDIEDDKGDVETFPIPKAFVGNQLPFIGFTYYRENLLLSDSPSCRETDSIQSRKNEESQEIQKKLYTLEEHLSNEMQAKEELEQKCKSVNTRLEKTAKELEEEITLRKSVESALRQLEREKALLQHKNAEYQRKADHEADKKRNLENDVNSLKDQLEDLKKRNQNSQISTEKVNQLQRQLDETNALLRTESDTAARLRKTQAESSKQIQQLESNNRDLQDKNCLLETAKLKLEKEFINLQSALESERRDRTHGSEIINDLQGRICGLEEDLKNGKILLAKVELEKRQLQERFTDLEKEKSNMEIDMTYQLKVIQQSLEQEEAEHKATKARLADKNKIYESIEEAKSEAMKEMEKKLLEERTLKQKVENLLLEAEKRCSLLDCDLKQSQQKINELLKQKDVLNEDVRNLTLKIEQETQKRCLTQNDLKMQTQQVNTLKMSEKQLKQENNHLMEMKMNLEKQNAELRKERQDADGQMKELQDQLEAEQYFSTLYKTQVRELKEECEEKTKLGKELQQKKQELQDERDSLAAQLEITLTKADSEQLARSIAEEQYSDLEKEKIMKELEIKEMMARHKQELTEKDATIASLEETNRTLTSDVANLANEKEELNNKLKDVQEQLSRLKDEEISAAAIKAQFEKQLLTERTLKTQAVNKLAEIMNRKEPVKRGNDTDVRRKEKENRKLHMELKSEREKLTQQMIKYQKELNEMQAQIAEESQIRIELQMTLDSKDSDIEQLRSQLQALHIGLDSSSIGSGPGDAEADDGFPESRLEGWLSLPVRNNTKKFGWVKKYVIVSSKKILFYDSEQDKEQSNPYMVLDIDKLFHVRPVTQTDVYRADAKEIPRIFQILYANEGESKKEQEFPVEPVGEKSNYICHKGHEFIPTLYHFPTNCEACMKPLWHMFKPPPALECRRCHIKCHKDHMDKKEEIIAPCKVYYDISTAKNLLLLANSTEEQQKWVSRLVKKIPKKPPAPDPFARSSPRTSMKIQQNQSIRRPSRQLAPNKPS
Chain of Rho-associated protein kinase (Homo sapiens) (Q13464 whole entry, looked up): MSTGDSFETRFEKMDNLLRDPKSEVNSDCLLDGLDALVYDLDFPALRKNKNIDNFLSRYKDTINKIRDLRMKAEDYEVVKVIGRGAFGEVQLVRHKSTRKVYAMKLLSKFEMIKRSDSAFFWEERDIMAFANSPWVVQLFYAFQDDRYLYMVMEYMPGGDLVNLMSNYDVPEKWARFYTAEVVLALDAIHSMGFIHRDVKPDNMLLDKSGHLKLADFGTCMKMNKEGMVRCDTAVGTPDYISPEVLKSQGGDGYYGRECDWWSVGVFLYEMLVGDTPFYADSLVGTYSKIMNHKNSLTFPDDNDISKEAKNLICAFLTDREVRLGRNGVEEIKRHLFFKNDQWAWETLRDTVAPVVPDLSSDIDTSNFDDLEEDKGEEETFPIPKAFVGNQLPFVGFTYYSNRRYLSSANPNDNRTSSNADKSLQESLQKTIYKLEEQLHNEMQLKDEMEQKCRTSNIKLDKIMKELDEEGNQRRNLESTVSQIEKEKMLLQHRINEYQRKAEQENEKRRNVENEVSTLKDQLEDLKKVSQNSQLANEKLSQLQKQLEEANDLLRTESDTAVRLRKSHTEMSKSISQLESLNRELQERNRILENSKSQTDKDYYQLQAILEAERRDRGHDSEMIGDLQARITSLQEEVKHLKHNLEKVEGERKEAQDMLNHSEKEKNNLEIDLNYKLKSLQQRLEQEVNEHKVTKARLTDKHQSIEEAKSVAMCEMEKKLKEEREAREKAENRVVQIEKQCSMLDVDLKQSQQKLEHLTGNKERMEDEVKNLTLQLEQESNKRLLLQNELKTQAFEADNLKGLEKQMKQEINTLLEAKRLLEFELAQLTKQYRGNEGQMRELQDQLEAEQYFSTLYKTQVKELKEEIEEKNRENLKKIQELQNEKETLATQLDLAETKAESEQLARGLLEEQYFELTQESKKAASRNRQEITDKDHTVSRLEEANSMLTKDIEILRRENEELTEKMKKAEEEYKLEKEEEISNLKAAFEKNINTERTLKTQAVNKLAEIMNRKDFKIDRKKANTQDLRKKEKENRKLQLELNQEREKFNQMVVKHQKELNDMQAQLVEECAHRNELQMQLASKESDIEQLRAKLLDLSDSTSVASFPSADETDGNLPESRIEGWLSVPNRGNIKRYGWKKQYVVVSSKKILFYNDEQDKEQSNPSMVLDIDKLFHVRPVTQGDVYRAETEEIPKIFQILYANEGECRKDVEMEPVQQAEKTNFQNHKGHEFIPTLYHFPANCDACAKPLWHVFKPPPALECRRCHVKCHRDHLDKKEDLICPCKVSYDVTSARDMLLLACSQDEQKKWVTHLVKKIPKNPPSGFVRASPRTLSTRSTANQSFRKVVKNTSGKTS

[4] = molecular target: T3, Phosphatidylinositol 5-phosphate 4-kinase type-2 gamma (Homo sapiens) (UniProt Q8TBX8); experiment: Inhibition of PIP5K2C C2 labeling site in human Huh-7 cells at 1 uM by KiNativ Profiling analysis relative to control
T3 sequence (whole entry): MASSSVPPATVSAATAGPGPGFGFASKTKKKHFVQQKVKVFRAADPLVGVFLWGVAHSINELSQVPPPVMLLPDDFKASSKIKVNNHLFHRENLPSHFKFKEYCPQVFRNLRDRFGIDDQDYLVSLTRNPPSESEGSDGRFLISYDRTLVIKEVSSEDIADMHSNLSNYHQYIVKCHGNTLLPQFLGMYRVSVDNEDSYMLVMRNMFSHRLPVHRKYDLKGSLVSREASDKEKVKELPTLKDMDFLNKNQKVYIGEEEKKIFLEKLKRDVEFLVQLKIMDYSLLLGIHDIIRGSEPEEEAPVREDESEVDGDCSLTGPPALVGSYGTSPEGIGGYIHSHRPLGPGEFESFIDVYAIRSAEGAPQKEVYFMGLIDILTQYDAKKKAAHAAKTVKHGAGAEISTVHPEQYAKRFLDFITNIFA

[5] = molecular target: Serine/threonine-protein kinase 24 (Homo sapiens) (UniProt Q9Y6E0); experiment: Inhibition of MST3 Lys2 labeling site harbouring IHRDIKAANVLLSEHGEVK in human A-375 cells at 5 uM by KiNativ Profiling analysis relative to control
Chain of Serine/threonine-protein kinase 24 (Homo sapiens) (Q9Y6E0 whole entry, looked up): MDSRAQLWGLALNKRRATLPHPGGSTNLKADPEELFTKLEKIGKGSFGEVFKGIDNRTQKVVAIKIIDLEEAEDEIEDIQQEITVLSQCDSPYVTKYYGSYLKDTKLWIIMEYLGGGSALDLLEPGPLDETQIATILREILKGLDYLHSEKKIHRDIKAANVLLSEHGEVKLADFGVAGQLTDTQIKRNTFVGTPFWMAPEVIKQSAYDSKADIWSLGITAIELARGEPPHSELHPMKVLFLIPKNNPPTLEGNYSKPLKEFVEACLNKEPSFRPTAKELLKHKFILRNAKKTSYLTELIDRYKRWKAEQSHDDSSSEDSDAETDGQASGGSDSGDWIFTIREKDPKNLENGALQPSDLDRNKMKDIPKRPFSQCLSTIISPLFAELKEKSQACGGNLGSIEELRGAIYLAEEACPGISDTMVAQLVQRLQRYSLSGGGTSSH

In the case of `CCN1CCN(Cc2ccc(NC(=O)c3ccc(C)c(Oc4ccnc5[nH]ccc45)c3)cc2C(F)(F)F)CC1`, the inhibition [1] is reported as -6.6%, the inhibition [2] is reported as 15.4% and the inhibition [3] is reported as 4.1%. For the same molecule, the inhibition [4] was 1.3%.
Work on `CCN1CCN(Cc2ccc(NC(=O)c3ccc(C)c(/C=C/c4cnc5[nH]ccc5c4OC)c3)cc2C(F)(F)F)CC1` yielded an inhibition [5] of -0.1%.
